{"source": "patent US7339039B2", "about": "“Nucleic acids encoding receptor recognition factors, and methods of use thereof” (The Rockfeller University, priority 1992, dated 2008)", "key": {"[1]": {"test_system": "ISGF-3 formation / IFN-α induced transcription", "conditions": "cited from earlier work"}, "[2]": {"target": "T1, Stat91-DNA complex (Homo sapiens, UniProt P42224)", "T1 sequence (P42224 1-750)": "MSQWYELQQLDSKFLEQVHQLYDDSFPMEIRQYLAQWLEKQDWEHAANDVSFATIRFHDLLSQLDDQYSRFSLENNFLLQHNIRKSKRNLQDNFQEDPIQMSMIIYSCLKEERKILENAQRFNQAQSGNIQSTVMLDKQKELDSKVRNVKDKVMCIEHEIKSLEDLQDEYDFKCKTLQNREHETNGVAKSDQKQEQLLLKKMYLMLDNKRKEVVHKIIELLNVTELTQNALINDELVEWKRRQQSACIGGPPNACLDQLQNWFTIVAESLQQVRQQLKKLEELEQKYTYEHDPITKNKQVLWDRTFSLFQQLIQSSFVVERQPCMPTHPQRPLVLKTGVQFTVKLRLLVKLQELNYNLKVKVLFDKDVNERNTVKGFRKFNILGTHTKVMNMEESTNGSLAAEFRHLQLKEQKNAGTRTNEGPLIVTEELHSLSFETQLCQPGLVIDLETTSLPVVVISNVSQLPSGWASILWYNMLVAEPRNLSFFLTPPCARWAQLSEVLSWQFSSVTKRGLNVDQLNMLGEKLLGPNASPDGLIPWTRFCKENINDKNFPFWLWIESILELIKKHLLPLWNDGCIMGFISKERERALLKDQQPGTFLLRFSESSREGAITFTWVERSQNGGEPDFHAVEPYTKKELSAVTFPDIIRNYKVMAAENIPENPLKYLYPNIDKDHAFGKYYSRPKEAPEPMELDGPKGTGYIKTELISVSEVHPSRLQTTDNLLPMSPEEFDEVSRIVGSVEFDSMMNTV", "assay": "Formation of Stat91-DNA complex in the presence of phosphoamino acids", "type": "biochemical", "conditions": "10 mM", "method": "(§1) Gel Mobility Shift Assays. Gel mobility shift assays were carried out as described (34). An oligonucleotide corresponding to the GAS element from the human FcγRI receptor gene (Pearse et al. 1993) was synthesized and used for gel mobility shift assays. The oligonucleotide has the following sequence: 5′[…]3′ (SEQ. ID NO:17).\nThe Stat91 sequence contains an SH2 domain (amino acids 569 to 700, see discussion below), and we knew that Tyr-701 was the single phosphorylated tyrosine residue required for DNA binding activity (supra, 45). […] We therefore sought evidence that the dimerization of Stat91 involved specific SH2-phosphotyrosine interaction using the dissociation and reassociation assay."}, "[3]": {"test_system": "Stat84 and Stat91L homodimers", "assay": "Dissociation-reassociation analysis (gel mobility shift with GAS probe)", "type": "biochemical, human", "conditions": "for dissociation of the dimers and block of formation of DNA protein complexes: peptide 160 μM", "method": "as §1\nDissociation-reassociation Analysis. Extracts were incubated with various concentrations of peptides or fusion proteins, and ^32P-labeled GAS oligonucleotide probe in gel shift buffer was then added to promote the formation of protein-DNA complex followed by mobility shift analysis.\nDimerization of Stat91 Involves Phosphoryrosyl Peptide and SH2 Interactions. Based on the results described above, we devised a dissociation-reassociation assay in the absence of guanidium hydrochloride to explore the possible nature of interactions involved in dimer formation (FIG. 20). When the short and the long forms of a homodimer are mixed with a dissociating agent (e.g., a peptide containing the putative dimerization domain), the subunits of the dimer should dissociate (in a concentration dependent fashion) due to the interaction of the agent with the dimerization domain(s) of the protein. When a specific DNA probe is subsequently added to the mixture to drive the formation of a stable protein-DNA complex, the detection of any reassociated or remaining dimers can be assayed. In the presence of low concentration of the dissociating agent, addition of DNA to form the stable protein-DNA complex should lead to the detection of homodimers as well as heterodimers. At high concentration of the dissociating agent, subunits of the dimer may not be able to re-form and no DNA-protein complexes would be detected (FIG. 20)."}}, "note": "Square brackets hold non-standard residues; d marks the D form. Ends that are not written are not given here. pY = N[C@@H](Cc1ccc(OP(=O)(O)O)cc1)C(=O)O"}
{"molecule": "CN[C@@H]1C[C@H]2O[C@@](C)([C@@H]1OC)n1c3ccccc3c3c4c(c5c6ccccc6n2c5c31)C(=O)NC4", "note": "[staurosporine]", "values": [{"measurement": "IFN-α induction of ISGF-3 formation", "setting": "[1]", "value": "blocks"}, {"measurement": "IFN-α induction of transcription", "setting": "[1]", "value": "blocks"}]}
{"molecule": "N[C@@H](COP(=O)(O)O)C(=O)O", "note": "[phosphoserine]", "values": [{"measurement": "prevention of formation of Stat91-DNA complex", "setting": "[2]", "value": "not"}]}
{"molecule": "EPQY*EEIPIYL (EPQ[pY]EEIPIYL) [SrcY-p, reference compound]", "values": [{"measurement": "effect on Stat91 dimer formation", "setting": "[3]; FIG. 21 lanes 11-13 (4, 40, 160 μM)", "value": "no effect"}]}
{"molecule": "LDGPKGTGYIKTELI [91Y]", "values": [{"measurement": "dissociation of the dimers and block of formation of DNA protein complexes", "setting": "[3]", "value": "not"}, {"measurement": "effect on the two gel shift bands characteristic of Stat84 or Stat91L homodimers", "setting": "[3]; various concentrations of peptide (4, 40, 160 μM)", "value": "no effect"}]}
{"molecule": "KVNLQERRKY*LKHR (KVNLQERRK[pY]LKHR) [113Y-p]", "values": [{"measurement": "exchange of subunits between Stat84 and Stat91L", "setting": "[3]; at concentrations similar to 91Y-p", "value": "promoted the exchange of subunits"}, {"measurement": "prevention of the gel shift bands", "setting": "[3]; peptide 40 μM", "value": "prevented the gel shift bands almost completely"}]}
{"molecule": "GY*IKTE (G[pY]IKTE) [91Y-p]", "values": [{"measurement": "exchange between the subunits of Stat84 dimers and Stat91L dimers to form heterodimers", "setting": "[3]; peptide 4 μM, extracts of IFN-γ-treated C84 and C91L cells", "value": "clearly promoted the exchange"}, {"measurement": "dissociation of the dimers and block of formation of DNA protein complexes", "setting": "[3]", "value": "dissociated the dimers and blocked the formation of DNA protein complexes"}]}
{"molecule": "C[C@@H](OP(=O)(O)O)[C@H](N)C(=O)O", "note": "[phosphothreonine]", "values": [{"measurement": "prevention of formation of Stat91-DNA complex", "setting": "[2]", "value": "not"}]}
{"molecule": "N[C@@H](Cc1ccc(OP(=O)(O)O)cc1)C(=O)O", "note": "[phosphotyrosine]", "values": [{"measurement": "prevention of formation of Stat91-DNA complex", "setting": "[2]", "value": "could prevent the formation"}]}
